ChEMBL document CHEMBL5257089, “Gamabufotalin Induces Apoptosis and Cytoprotective Autophagy through the mTOR Signaling Pathway in Hepatocellular Carcinoma” (J Nat Prod, 2023)
The source made the active and inactive calls. No cut-off for these calls is given here.

What was measured:
Huh-7 [1] = assay: Induction of autophagic flux in human Huh-7 cells assessed as rescue of LC3-I accumulation at 10 uM incubated for 48 hrs in presence of gamabufotalin by Western blot analysis; assay type: functional, cell-based
Hep 3B2 [2] = assay: Induction of autophagic flux in human Hep3B cells assessed as increase in number of autophagic vesicles at 10 nM by transmission electron microscopic analysis; assay type: functional, cell-based
Huh-7 [3] = assay: Induction of autophagic flux in human Huh-7 cells assessed as increase in number of autophagic vesicles at 10 nM by transmission electron microscopic analysis; assay type: functional, cell-based
Hep 3B2 [4] = assay: Induction of apoptosis in human Hep3B cells assessed as early apoptotic cells at 10 nM incubated for 48 hrs in presence of gamabufotalin by Annexin V-FITC/PI staining based flow cytometry method (reference value: 1.3%); assay type: functional
Hep 3B2 [5] = assay: Induction of apoptosis in human Hep3B cells assessed as increase in cleaved caspase-3 level at 10 nM incubated for 48 hrs in presence of gamabufotalin by immunoblot analysis; assay type: functional, cell-based
Huh-7 [6] = assay: Induction of apoptosis in human Huh-7 cells assessed as increase in caspase-3 level at 10 nM incubated for 48 hrs in presence of gamabufotalin by immunoblot analysis; assay type: functional, cell-based
Huh-7 [7] = assay: Induction of autophagy in human Huh-7 cells assessed as rescue of ULK1 phosphorylation level at upto 10 nM incubated for 48 hrs in presence of gamabufotalin by immunoblot method; assay type: functional, cell-based
Huh-7 [8] = assay: Induction of autophagic flux in human Huh-7 cells harbouring mCherry-egfp-LC3 assessed as reduction in number of red puncta ratio at 10 nM incubated for 15 mins in presence of gamabufotalin by laser scanning confocal microscopic analysis; assay type: functional, cell-based
Hep 3B2 [9] = assay: Induction of apoptosis in human Hep3B cells assessed as early apoptotic cells at 20 nM incubated for 48 hrs by Annexin V-FITC/PI staining based flow cytometry method (reference value: 3.9%); assay type: functional
Hep 3B2 [10] = assay: Induction of apoptosis in human Hep3B cells assessed as late apoptotic cells at 15 nM incubated for 48 hrs by Annexin V-FITC/PI staining based flow cytometry method (reference value: 2.6%); assay type: functional
Hep 3B2 [11] = assay: Induction of apoptosis in human Hep3B cells assessed as necrotic cells at 15 nM incubated for 48 hrs by Annexin V-FITC/PI staining based flow cytometry method (reference value: 0.2%); assay type: functional
Hep 3B2 [12] = assay: Induction of apoptosis in human Hep3B cells assessed as necrotic cells at 25 nM incubated for 48 hrs by Annexin V-FITC/PI staining based flow cytometry method (reference value: 0.2%); assay type: functional
Huh-7 [13] = assay: Induction of apoptosis in human Huh-7 cells assessed as early apoptotic cells at 25 nM incubated for 48 hrs by Annexin V-FITC/PI staining based flow cytometry method (reference value: 1.7%); assay type: functional
Huh-7 [14] = assay: Induction of apoptosis in human Huh-7 cells assessed as late apoptotic cells at 25 nM incubated for 48 hrs by Annexin V-FITC/PI staining based flow cytometry method (reference value: 2.2%); assay type: functional
Huh-7 [15] = assay: Induction of apoptosis in human Huh-7 cells assessed as fragmented nuclei at upto […] incubated for 48 hrs by Hoechst33258 staining based fluorescence microscopy; assay type: functional, cell-based
Hep 3B2 [16] = assay: Induction of apoptosis in human Hep3B cells assessed as increase in cleaved PARP expression at upto 25 nM incubated for 48 hrs by Western blot analysis; assay type: functional, cell-based
Hep 3B2 [17] = assay: Induction of apoptosis in human Hep3B cells assessed as necrotic cells at 25 nM measured after 48 hrs by annexin V-FITC/Propidium iodide staining based flow cytometric analysis (reference value: 0.3%); assay type: functional
Huh-7 [18] = assay: Induction of apoptosis in human Huh-7 cells assessed as viable cells at 25 nM measured after 48 hrs by annexin V-FITC/Propidium iodide staining based flow cytometric analysis (reference value: 91.7%); assay type: functional; details: read-out: Activity
Huh-7 [19] = assay: Induction of apoptosis in human Huh-7 cells assessed as viable cells at 25 nM measured after 48 hrs in presence of z-VAD-FMK by annexin V-FITC/Propidium iodide staining based flow cytometric analysis (reference value: 91.7%); assay type: functional; details: read-out: Activity
Huh-7 [20] = assay: Induction of apoptosis in human Huh-7 cells assessed as late apoptotic cells at 25 nM measured after 48 hrs in presence of z-VAD-FMK by annexin V-FITC/Propidium iodide staining based flow cytometric analysis (reference value: 6.1%); assay type: functional
Hep 3B2 [21] = assay: Induction of autophagic flux in human Hep3B cells harbouring mCherry-egfp-LC3 assessed as increase in red puncta at 25 nM incubated for 15 mins by laser scanning confocal microscopic analysis; assay type: functional, cell-based
Hep 3B2 [22] = assay: Induction of autophagic flux in human Hep3B cells assessed as decrease in p62 expression at upto 25 nM incubated for 48 hrs by Western blot analysis; assay type: functional, cell-based
Hep 3B2 [23] = assay: Induction of autophagic flux in human Hep3B cells assessed as rescue of LC3-I accumulation at 25 uM incubated for 48 hrs in presence of chloroquine by Western blot analysis; assay type: functional, cell-based
Huh-7 [24] = assay: Induction of autophagic flux in human Huh-7 cells assessed as rescue of LC3-I accumulation at 25 uM incubated for 48 hrs in presence of chloroquine by Western blot analysis; assay type: functional, cell-based
Hep 3B2 [25] = assay: Induction of apoptosis in human Hep3B cells assessed as viable cells at 25 nM incubated for 48 hrs by Annexin V-FITC/PI staining based flow cytometry method (reference value: 94.0%); assay type: functional; details: read-out: Activity
Huh-7 [26] = assay: Induction of apoptosis in human Huh-7 cells assessed as late apoptotic cells at 25 nM incubated for 48 hrs in presence of chloroquine by Annexin V-FITC/PI staining based flow cytometry method (reference value: 4.7%); assay type: functional
Huh-7 [27] = assay: Induction of apoptosis in human Huh-7 cells assessed as reduction in Bcl-2 level at 25 nM incubated for 48 hrs in presence of chloroquine by immunoblot analysis; assay type: functional, cell-based
Hep 3B2 [28] = assay: Induction of apoptosis in human Hep3B cells assessed as necrotic cells at 25 nM incubated for 48 hrs in presence of 4,6-dimorpholino-N-(4-nitrophenyl)-1,3,5-triazin-2-amine by Annexin V-FITC/PI staining based flow cytometry method (reference value: 0.7%); assay type: functional
Huh-7 [29] = assay: Induction of apoptosis in human Huh-7 cells assessed as necrotic cells at 25 nM incubated for 48 hrs by Annexin V-FITC/PI staining based flow cytometry method (reference value: 1.9%); assay type: functional
Huh-7 [30] = assay: Induction of apoptosis in human Huh-7 cells assessed as upregulation of cleaved caspase-3 level […] incubated for 48 hrs in presence of 4,6-dimorpholino-N-(4-nitrophenyl)-1,3,5-triazin-2-amine by immunoblot analysis; assay type: functional, cell-based
Huh-7 [31] = assay: Induction of apoptosis in human Huh-7 cells assessed as upregulation of bax level […] incubated for 48 hrs in presence of 4,6-dimorpholino-N-(4-nitrophenyl)-1,3,5-triazin-2-amine by immunoblot analysis; assay type: functional, cell-based
Huh-7 [32] = assay: Induction of autophagy in human Huh-7 cells assessed as reduction in mTOR phosphorylation level incubated for 48 hrs by immunoblot method; assay type: functional, cell-based; details: dose 0-25 nM
[33] = Toxicity in mouse assessed as effect on lungs at 5 mg/kg,ip administered every second day for 3 weeks by H and E staining based microscopic method; assay type: organism-based; details: in vivo, 504 h

CCN(CC)CCCC(C)Nc1ccnc2cc(Cl)ccc12 (stereo not drawn) [CHLOROQUINE]
Activity (Huh-7 [1]): Active
Activity (Hep 3B2 [2]): Active
Activity (Huh-7 [3]): Active
Activity (Hep 3B2 [4]): 17.9%
Activity (Hep 3B2 [5]): Active
Activity (Huh-7 [6]): Active
Activity (Huh-7 [7]): Active
Activity (Huh-7 [8]): Active

C[C@]12CC[C@H](O)C[C@H]1CC[C@@H]1[C@@H]2[C@H](O)C[C@]2(C)[C@@H](c3ccc(=O)oc3)CC[C@]12O [GAMABUFOTALIN]
Activity (Hep 3B2 [9]): 7.8%
Activity (Hep 3B2 [10]): 4.5%
Activity (Hep 3B2 [11]): 0.5%
Activity (Hep 3B2 [12]): 0.6%
Activity (Huh-7 [13]): 5.6%
Activity (Huh-7 [14]): 31.1%
Activity (Huh-7 [15]): Active
Activity (Hep 3B2 [16]): Active
Activity (Hep 3B2 [17]): 0.6%
viability at 0.025 µM (Huh-7 [18]): 72%
viability at 0.025 µM (Huh-7 [19]): 89%
Activity (Huh-7 [20]): 7.4%
Activity (Hep 3B2 [21]): Active
Activity (Hep 3B2 [22]): Active
Activity (Hep 3B2 [23]): Active
Activity (Huh-7 [24]): Active
viability at 0.025 µM (Hep 3B2 [25]): 71.4%
Activity (Huh-7 [26]): 19.1%
Activity (Huh-7 [27]): Active
Activity (Hep 3B2 [28]): 1.7%
Activity (Huh-7 [29]): 2.1%
Activity (Huh-7 [30]): Active
Activity (Huh-7 [31]): Active
Activity (Huh-7 [32]): Dose-Dependent Effect
Activity [33]: Non-Toxic
